The text below walks through data of patent publication US10517889B2, “Modulators of SMAD7 expression” (Ionis Pharmaceuticals, Inc., priority 2017, dated 2019).

Strand notation (5' to 3'): a small letter for the sugar, then the base; units joined by * are phosphorothioate-linked, units joined directly phosphodiester-linked; [ ] holds rarer units or linkages, { } end groups; capitals alone tell only the bases. k = constrained ethyl (cEt); [5mC] = 5-methylcytosine; d = 2'-deoxy (DNA)

The subject of this data set is human SMAD7 mRNA. As to the kind of experiment: Antisense inhibition of human SMAD7 mRNA expression in Hep3B cells by 3-10-3 cEt gapmers, 10,000 nM, electroporation (Example 2). The data set is classed as cell-based. The conditions noted are these: Hep3B cells, electroporation with 10,000 nM antisense oligonucleotide, approximately 24 hours, primer probe set RTS5062, relative to untreated control cells. In a few lines:
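Hep3B, 20,000 cells/well; electroporation, 10,000 nM ASO; ~24 h. Readout: SMAD7 mRNA by qRT-PCR (RTS5062), RIBOGREEN-normalised; % inhibition vs untreated.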
As to “798944 (antisense kA*kA*kA*d[5mC]*dG*dA*dG*dG*dA*d[5mC]*dG*dA*dG*kA*kA*kG) [compound 798944]”, the “% inhibition of SMAD7 mRNA expression” value was 3%.

With “798945 (antisense k[5mC]*kA*k[5mC]*dA*dA*dA*d[5mC]*dG*dA*dG*dG*dA*d[5mC]*kG*kA*kG) [compound 798945]”, the “% inhibition of SMAD7 mRNA expression” value worked out at 19%.

As to “798946 (antisense kG*kA*kA*d[5mC]*dA*d[5mC]*dA*dA*dA*d[5mC]*dG*dA*dG*kG*kA*k[5mC]) [compound 798946]”, the “% inhibition of SMAD7 mRNA expression” value was found to be 4%.

On to “798947 (antisense kA*k[5mC]*kA*dG*dA*dA*d[5mC]*dA*d[5mC]*dA*dA*dA*d[5mC]*kG*kA*kG) [compound 798947]”, for which the “% inhibition of SMAD7 mRNA expression” value is recorded as 52%.

As for “798948 (antisense kG*k[5mC]*kG*dA*dA*dA*d[5mC]*dA*dA*dA*dA*d[5mC]*dA*kG*kA*kA) [compound 798948]”, the “% inhibition of SMAD7 mRNA expression” value amounted to 56%.

With “798949 (antisense kA*kG*kA*dG*d[5mC]*dG*dA*dA*dA*d[5mC]*dA*dA*dA*kA*k[5mC]*kA) [compound 798949]”, the “% inhibition of SMAD7 mRNA expression” value was determined as 55%.

For “798950 (antisense k[5mC]*kA*kA*dA*dG*dA*dG*d[5mC]*dG*dA*dA*dA*d[5mC]*kA*kA*kA) [compound 798950]”, the “% inhibition of SMAD7 mRNA expression” value stood at 0%.

As for “798951 (antisense kT*k[5mC]*kT*d[5mC]*dA*dA*dA*dG*dA*dG*d[5mC]*dG*dA*kA*kA*k[5mC]) [compound 798951]”, the “% inhibition of SMAD7 mRNA expression” value was 37%.

“798952 (antisense kT*kA*kT*dT*dT*d[5mC]*dT*d[5mC]*dA*dA*dA*dG*dA*kG*k[5mC]*kG) [compound 798952]”: the “% inhibition of SMAD7 mRNA expression” value is given as 61%.

“798953 (antisense kA*kG*k[5mC]*dT*dA*dT*dT*dT*d[5mC]*dT*d[5mC]*dA*dA*kA*kG*kA) [compound 798953]”: the “% Inhibition” value is 17%.

As to “798955 (antisense kT*kT*k[5mC]*dA*dT*dA*dA*dG*d[5mC]*dT*dA*dT*dT*kT*k[5mC]*kT) [compound 798955]”, the “% Inhibition” value came to 15%.

Turning to “798956 (antisense k[5mC]*kT*kT*dT*dT*d[5mC]*dA*dT*dA*dA*dG*d[5mC]*dT*kA*kT*kT) [compound 798956]”, the “% Inhibition” value was 22%.

Take “798957 (antisense kA*kT*kT*d[5mC]*dT*dT*dT*dT*d[5mC]*dA*dT*dA*dA*kG*k[5mC]*kT) [compound 798957]”: the “% Inhibition” value is listed as 28%.

For the substance “798958 (antisense kA*kA*k[5mC]*dA*dA*dT*dT*d[5mC]*dT*dT*dT*dT*d[5mC]*kA*kT*kA) [compound 798958]”, the “% Inhibition” value worked out at 0%.

Take “798959 (antisense k[5mC]*k[5mC]*k[5mC]*dA*dA*d[5mC]*dA*dA*dT*dT*d[5mC]*dT*dT*kT*kT*k[5mC]) [compound 798959]”: the “% Inhibition” value was 36%.

Regarding “798960 (antisense kA*k[5mC]*k[5mC]*d[5mC]*d[5mC]*d[5mC]*dA*dA*d[5mC]*dA*dA*dT*dT*k[5mC]*kT*kT) [compound 798960]”, the “% Inhibition” value stood at 39%.

As to “798961 (antisense kA*kA*kA*dA*d[5mC]*d[5mC]*d[5mC]*d[5mC]*d[5mC]*dA*dA*d[5mC]*dA*kA*kT*kT) [compound 798961]”, the “% Inhibition” value was determined as 0%.

For “798962 (antisense kT*kT*k[5mC]*d[5mC]*dA*dA*dA*dA*dA*dA*dA*d[5mC]*d[5mC]*k[5mC]*k[5mC]*k[5mC]) [compound 798962]”, the “% Inhibition” value was 2%.

On to “798963 (antisense kT*kT*k[5mC]*dT*dT*d[5mC]*d[5mC]*dA*dA*dA*dA*dA*dA*kA*k[5mC]*k[5mC]) [compound 798963]”, for which the “% inhibition of SMAD7 mRNA expression” value is 13%.

On to “798964 (antisense k[5mC]*k[5mC]*k[5mC]*dT*dT*d[5mC]*dT*dT*d[5mC]*d[5mC]*dA*dA*dA*kA*kA*kA) [compound 798964]”, for which the “% inhibition of SMAD7 mRNA expression” value was 32%.

Turning to “798965 (antisense kT*kG*k[5mC]*d[5mC]*d[5mC]*d[5mC]*dT*dT*d[5mC]*dT*dT*d[5mC]*d[5mC]*kA*kA*kA) [compound 798965]”, the “% inhibition of SMAD7 mRNA expression” value stood at 43%.

As to “798966 (antisense kT*kA*k[5mC]*d[5mC]*dT*dG*d[5mC]*d[5mC]*d[5mC]*d[5mC]*dT*dT*d[5mC]*kT*kT*k[5mC]) [compound 798966]”, the “% inhibition of SMAD7 mRNA expression” value worked out at 35%.

With “798967 (antisense kT*k[5mC]*kA*dT*dA*d[5mC]*d[5mC]*dT*dG*d[5mC]*d[5mC]*d[5mC]*d[5mC]*kT*kT*k[5mC]) [compound 798967]”, the “% inhibition of SMAD7 mRNA expression” value was 40%.

“798968 (antisense k[5mC]*kG*kA*dT*d[5mC]*dA*dT*dA*d[5mC]*d[5mC]*dT*dG*d[5mC]*k[5mC]*k[5mC]*k[5mC]) [compound 798968]”: the “% inhibition of SMAD7 mRNA expression” value was 62%.

With “798969 (antisense kT*kG*k[5mC]*d[5mC]*dG*dA*dT*d[5mC]*dA*dT*dA*d[5mC]*d[5mC]*kT*kG*k[5mC]) [compound 798969]”, the “% inhibition of SMAD7 mRNA expression” value came to 48%.

For “798970 (antisense kT*k[5mC]*k[5mC]*dT*dG*d[5mC]*d[5mC]*dG*dA*dT*d[5mC]*dA*dT*kA*k[5mC]*k[5mC]) [compound 798970]”, the “% inhibition of SMAD7 mRNA expression” value is 41%.

With “798971 (antisense kG*kG*kT*dG*dT*d[5mC]*d[5mC]*dT*dG*d[5mC]*d[5mC]*dG*dA*kT*k[5mC]*kA) [compound 798971]”, the “% inhibition of SMAD7 mRNA expression” value came out at 53%.

As for “798972 (antisense kT*kA*kT*d[5mC]*dA*dG*dG*dG*dT*dG*dT*d[5mC]*d[5mC]*kT*kG*k[5mC]) [compound 798972]”, the “% inhibition of SMAD7 mRNA expression” value turned out to be 18%.

Take “798973 (antisense kT*k[5mC]*k[5mC]*dT*dA*dT*d[5mC]*dA*dG*dG*dG*dT*dG*kT*k[5mC]*k[5mC]) [compound 798973]”: the “% Inhibition” value is 30%.

For the substance “798974 (antisense k[5mC]*kT*k[5mC]*dT*dT*d[5mC]*d[5mC]*dT*dA*dT*d[5mC]*dA*dG*kG*kG*kT) [compound 798974]”, the “% Inhibition” value is reported as 12%.

As for “798975 (antisense kT*k[5mC]*k[5mC]*d[5mC]*d[5mC]*dT*d[5mC]*dT*dT*d[5mC]*d[5mC]*dT*dA*kT*k[5mC]*kA) [compound 798975]”, the “% Inhibition” value is listed as 47%.

Consider “798976 (antisense kT*kG*kG*dA*dT*dT*dT*d[5mC]*dT*dG*d[5mC]*dT*dT*k[5mC]*k[5mC]*k[5mC]) [compound 798976]”, for which the “% Inhibition” value worked out at 19%.

As to “798977 (antisense kT*kG*k[5mC]*dT*dT*dG*dG*dA*dT*dT*dT*d[5mC]*dT*kG*k[5mC]*kT) [compound 798977]”, the “% Inhibition” value turned out to be 43%.

“798978 (antisense kT*kT*kT*dG*dG*dT*dG*dG*dT*dG*d[5mC]*dT*dT*kG*kG*kA) [compound 798978]”: the “% Inhibition” value amounted to 25%.

Take “798979 (antisense kG*kT*kG*dT*dT*dT*dG*dG*dT*dG*dG*dT*dG*k[5mC]*kT*kT) [compound 798979]”: the “% Inhibition” value was determined as 19%.

In the case of “798980 (antisense kA*k[5mC]*kA*d[5mC]*dT*dG*dT*dG*dT*dT*dT*dG*dG*kT*kG*kG) [compound 798980]”, the “% Inhibition” value is reported as 50%.

Turning to “798981 (antisense k[5mC]*kA*kT*dA*d[5mC]*dA*d[5mC]*dT*dG*dT*dG*dT*dT*kT*kG*kG) [compound 798981]”, the “% Inhibition” value was 58%.

“798982 (antisense k[5mC]*kT*kT*d[5mC]*dA*dT*dA*d[5mC]*dA*d[5mC]*dT*dG*dT*kG*kT*kT) [compound 798982]”: the “% Inhibition” value was 45%.

As to “798983 (antisense k[5mC]*k[5mC]*k[5mC]*d[5mC]*dT*dT*d[5mC]*dA*dT*dA*d[5mC]*dA*d[5mC]*kT*kG*kT) [compound 798983]”, the “% inhibition of SMAD7 mRNA expression” value is 0%.

As for “798984 (antisense kG*k[5mC]*k[5mC]*d[5mC]*d[5mC]*d[5mC]*d[5mC]*dT*dT*d[5mC]*dA*dT*dA*k[5mC]*kA*k[5mC]) [compound 798984]”, the “% inhibition of SMAD7 mRNA expression” value turned out to be 64%.

For “798985 (antisense kG*kA*k[5mC]*d[5mC]*dG*d[5mC]*d[5mC]*d[5mC]*d[5mC]*d[5mC]*d[5mC]*dT*dT*k[5mC]*kA*kT) [compound 798985]”, the “% inhibition of SMAD7 mRNA expression” value is 41%.

On to “798986 (antisense kG*kA*kT*dG*dA*d[5mC]*d[5mC]*dG*d[5mC]*d[5mC]*d[5mC]*d[5mC]*d[5mC]*k[5mC]*kT*kT) [compound 798986]”, for which the “% inhibition of SMAD7 mRNA expression” value is 34%.

In the case of “798988 (antisense kT*kG*kA*dA*dA*dT*dG*dA*dT*dG*dA*d[5mC]*d[5mC]*kG*k[5mC]*k[5mC]) [compound 798988]”, the “% inhibition of SMAD7 mRNA expression” value amounted to 69%.

As to “798989 (antisense kA*kA*kG*dT*dG*dA*dA*dA*dT*dG*dA*dT*dG*kA*k[5mC]*k[5mC]) [compound 798989]”, the “% inhibition of SMAD7 mRNA expression” value is listed as 8%.

As for “798990 (antisense kG*kA*k[5mC]*dA*dA*dG*dT*dG*dA*dA*dA*dT*dG*kA*kT*kG) [compound 798990]”, the “% inhibition of SMAD7 mRNA expression” value is recorded as 39%.

For the substance “798991 (antisense k[5mC]*k[5mC]*kT*dG*dA*d[5mC]*dA*dA*dG*dT*dG*dA*dA*kA*kT*kG) [compound 798991]”, the “% inhibition of SMAD7 mRNA expression” value is 23%.

Take “798992 (antisense kA*k[5mC]*kT*d[5mC]*d[5mC]*dT*dG*dA*d[5mC]*dA*dA*dG*dT*kG*kA*kA) [compound 798992]”: the “% inhibition of SMAD7 mRNA expression” value was found to be 29%.

“798993 (antisense k[5mC]*kA*k[5mC]*dA*d[5mC]*dT*d[5mC]*d[5mC]*dT*dG*dA*d[5mC]*dA*kA*kG*kT) [compound 798993]”: the “% Inhibition” value is on record as 37%.

On to “798994 (antisense kA*k[5mC]*kA*d[5mC]*dA*d[5mC]*dA*d[5mC]*dT*d[5mC]*d[5mC]*dT*dG*kA*k[5mC]*kA) [compound 798994]”, for which the “% Inhibition” value came out at 0%.

Usually % Inhibition stands for the drop in the measured response relative to a control, in per cent. Read a low % Inhibition as a response near the control.
